Data on seven compounds can be found in EP4813984A1 (Jiangsu Hengrui Pharmaceuticals Co., Ltd., priority 2023, dated 2025).

The target in one data set is T1, hGLP-1 receptor (Homo sapiens, UniProt P43220).
T1 construct: expressed in transfected cells; host or cells: CHO-K1 (stably transfected with hGLP-1 receptor plasmid and CRE-luc plasmid)
Kind of data set: Agonist activity against GLP-1 receptor (CRE-luciferase reporter, ONE-Glo Luciferase Assay System). In kind it is cell-based. As to conditions: CHO-K1/CRE-luc/hGLP-1 receptor cells; 5 h incubation with compound; chemiluminescence readout. The text has this:
This experiment was intended to test the agonist activity of compound molecules against hGLP-1 receptor and evaluate the in vitro activity of the molecules according to EC50. In this experiment, ONE-Glo™ Luciferase Assay System (ONE-Glo™ Luciferase Assay System, Promega, E6110) was used. Under the action of the compound molecules, GLP-1R downstream signaling pathways were activated to cause elevated cAMP level. The binding of cAMP to CRE could initiate the transcriptional expression of a CRE downstream luciferase gene. The luciferase could emit fluorescence when reacting with a substrate thereof. The fluorescence signal, which reflected the activity of the compound for agonizing GLP-1 receptor, was measured by means ONE-Glo™ reagent.
A stably transfected CHO-K1/CRE-luc/hGLP-1 receptor cell strain (hGLP-1 receptor plasmid constructed in-house and CRE-luc plasmid Promega E8471) was constructed. CHO-K1/CRE-luc/hGLP-1 receptor cells were digested, centrifuged, and then resuspended. The single cell suspension was uniformly mixed and adjusted to a viable cell density of 2.78 × 10^5 cells/ml with a cell culture medium (DME/F-12 + 10% FBS). The resulting solution was added to a 96-well cell culture plate at 90 µL/well (Corning, #3903). The culture plate was incubated in an incubator for 16 h (37°C, 5% CO2).
The compound was dissolved in DMSO to prepare a stock solution with an initial concentration of 20 mM. The starting concentration of the small molecule compound was 0.02 mM. The compound was subjected to 3-fold dilution for 10 points, wherein the 11th point was DMSO. Another 96-well plate was taken, to which was added 95 µL/well of a cell culture medium (DME/F-12 + 10% FBS), followed by 5 µL/well of test samples with different concentrations. The mixtures were uniformly mixed. Next, 10 µL/well of test samples with different concentrations were added to the cell culture plate, with two duplicate wells for each sample. The culture plate was incubated in an incubator for 5 h (37°C, 5% CO2). The 96-well cell culture plate was taken out. 100 µL/well of ONE-Glo™ reagent was added, followed by incubation at room temperature for 10 minutes. Chemiluminescence was measured in and by a microplate reader (PHERAstar FS, BMG labtech).
Data were processed and analyzed using Microsoft Excel and Graphpad Prism 10. EC50 values of the compounds were obtained. Table 1. Agonist activity of the compounds of the present invention against hGLP-1 receptor
For orientation: In a reporter assay the amount or activity of a reporter protein is the signal.

A short description of data set [1]: Pharmacokinetic evaluation in monkeys after intragastric gavage (plasma LC-MS/MS). The data set is classed as in vivo. As to conditions: both sexes, cynomolgus monkey, po, i.g., 1 mg/kg. The protocol: Using cynomolgus monkeys as test animals, the plasma concentrations of the example compounds at different time points were determined by an LC-MS/MS method following administration to the monkeys by intragastric gavage (i.g.). The pharmacokinetic behaviors of the compounds of the present invention in monkeys were investigated, and the pharmacokinetic profiles thereof were evaluated.
Compound 9: Three cynomolgus monkeys (two males and one female) were provided by Guangxi Nanning Tongling Shengwu Keji Youxian Gongsi, with production license SCXK Gui-2020-0002.
Compound 9: A certain amount of the test compound was separately weighed. 5% DMSO + 30% PG + 30% PEG400 + 35% normal saline were added to prepare a 0.4 mg/mL colorless and clear solution.
Compound 9: Administration dose was 1 mg/kg and administration volume was 2.5 mL/kg.
0.5 mL of blood samples were collected from the vein before administration and at 0.25, 0.5, 1.0, 2.0, 4.0, 6.0, 8.0, 11.0, and 24.0 hours after administration and placed in EDTA-K2 anticoagulant tubes, followed by centrifugation at 10000 rpm for 2 minutes (4°C). The plasma was separated within 1 hour and stored at -20°C or -80°C for analysis. The process from blood collection to centrifugation was operated under ice bath condition.
Determination of test compound contents in […] after administration of different compounds: Compound 9: 50 µL of the monkey plasma sample collected at each time point after administration was taken. 25 µL of an internal standard acetonitrile solution (tolbutamide, 1 ug/mL) was added, followed by 450 µL of an acetonitrile solution. The mixture was vortexed and mixed, followed by centrifugation at 3700 rpm for 10 min. The supernatant was taken for LC-MS/MS analysis.

T1 sequence (P43220 24-463): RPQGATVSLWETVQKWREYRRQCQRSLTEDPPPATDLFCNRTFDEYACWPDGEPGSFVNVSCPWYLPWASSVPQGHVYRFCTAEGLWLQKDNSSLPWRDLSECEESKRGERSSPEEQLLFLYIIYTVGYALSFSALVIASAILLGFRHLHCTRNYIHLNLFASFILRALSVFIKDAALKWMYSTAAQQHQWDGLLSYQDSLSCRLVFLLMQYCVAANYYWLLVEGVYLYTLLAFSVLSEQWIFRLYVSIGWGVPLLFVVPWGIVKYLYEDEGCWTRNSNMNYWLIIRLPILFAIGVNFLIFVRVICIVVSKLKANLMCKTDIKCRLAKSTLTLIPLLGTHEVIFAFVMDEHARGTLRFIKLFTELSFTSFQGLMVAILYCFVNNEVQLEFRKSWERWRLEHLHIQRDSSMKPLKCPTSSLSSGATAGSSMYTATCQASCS

A word on the EC50: it is the midpoint of the concentration-response curve. Usually bioavailability stands for the share of a dose that reaches the circulation, judged against a reference dose that is usually intravenous. With `Cc1cc(-n2nc3c(c2-c2cncn(-c4ccc5c(cnn5C)c4)c2=O)[C@H](C)N(C(=O)c2cc4cc([C@H]5CCOC(C)(C)C5)ccc4n2[C@@]2(c4noc(=O)[nH]4)C[C@@H]2C)CC3)cc(C)c1F` [Compound 9, 3-((1S,2S)-1-(5-((S)-2,2-dimethyltetrahydro-2H-pyran-4-yl)-2-((S)-2-(4-fluoro-3,5-dimethylphenyl)-4-methyl-3-(1-(1-methyl-1H-indazol-5-yl)-6-oxo-1,6-dihydropyrimidin-5-yl)-4,5,6,7-tetrahydro-2H-pyrazolo[4,3-c]pyridine-5-carbonyl)-1H-indol-1-yl)-2-methylcyclopropyl)-1,2,4-oxadiazol-5(4H)-one], on hGLP-1 receptor, the EC50 was determined as 0.06 nM and the Emax came to 18.96 fold. For the same compound, the Vd/F in data set [1] (read-out: Apparent volume of distribution Vz/F) worked out at 6.12 L/kg. Further, the AUC(0-t) in data set [1] (read-out: Area under the curve AUC0-t) came to 1180 ng·h/mL. Besides, in data set [1] (read-out: Bioavailability F), the bioavailability was 44.5%. Moreover, the CL/F in data set [1] (read-out: Clearance CL/F) turned out to be 12.4 mL/min/kg. In data set [1] (read-out: Half life T1/2 (converted)), the half-life was 5.88 h. Further, in data set [1] (read-out: Plasma concentration Cmax), the Cmax was 178 ng/mL.
With `Cc1cc(-n2nc3c(c2N2C[C@@H]4COc5c(ccc6c5cnn6C5CC5)N4C2=O)[C@H](C)N(C(=O)c2cc4cc([C@H]5CCOC(C)(C)C5)ccc4n2[C@@]2(c4noc(=O)[nH]4)C[C@@H]2C)CC3)cc(C)c1F` [Compound 24, (R)-1-cyclopropyl-7-((S)-5-(5-((S)-2,2-dimethyltetrahydro-2H-pyran-4-yl)-1-((1S,2S)-2-methyl-1-(5-oxo-4,5-dihydro-1,2,4-oxadiazol-3-yl)cyclopropyl)-1H-indole-2-carbonyl)-2-(4-fluoro-3,5-dimethylphenyl)-4-methyl-4,5,6,7-tetrahydro-2H-pyrazolo[4,3-c]pyridin-3-yl)-5,5a,6,7-tetrahydro-1H,8H-imidazo[1',5':4,5][1,4]oxazino[2,3-e]indazol-8-one], on hGLP-1 receptor, the concentration giving a half-maximal response (EC50) amounted to 0.03 nM and the Emax worked out at 18.51 fold.
Consider `Cc1cc(-n2nc3c(c2-n2ccn(-c4ccc5c(cnn5C)c4F)c2=O)[C@H](C)N(C(=O)c2cc4cc5c(cc4n2[C@@]2(c4noc(=O)[nH]4)C[C@@H]2C)OCC52CCOCC2)CC3)cc(C)c1F` [Compound 7], for which, at hGLP-1 receptor, the EC50 is 0.03 nM and the Emax was 14.46 fold.
On to `C[C@H]1c2c(nn(-c3ccc(F)c(C4CC4)c3)c2-c2cncn(-c3ccc4c(cnn4C)c3)c2=O)CCN1C(=O)c1cc2cc([C@H]3CCOC(C)(C)C3)ccc2n1[C@@]1(c2noc(=O)[nH]2)C[C@@H]1C` [Compound 42, 3-((1S,2S)-1-(2-((S)-2-(3-cyclopropyl-4-fluorophenyl)-4-methyl-3-(1-(1-methyl-1H-indazol-5-yl)-6-oxo-1,6-dihydropyrimidin-5-yl)-4,5,6,7-tetrahydro-2H-pyrazolo[4,3-c]pyridine-5-carbonyl)-5-((S)-2,2-dimethyltetrahydro-2H-pyran-4-yl)-1H-indol-1-yl)-2-methylcyclopropyl)-1,2,4-oxadiazol-5(4H)-one], for which, on hGLP-1 receptor, the concentration for a half-maximal effect (EC50) was determined as 0.05 nM and the Emax was found to be 19.67 fold.
For `Cc1cc(-n2nc3c(c2N2C[C@@H]4COc5cc6c(cnn6CC6CC6)c(F)c5N4C2=O)[C@H](C)N(C(=O)c2cc4cc([C@H]5CCOC(C)(C)C5)ccc4n2[C@@]2(c4noc(=O)[nH]4)C[C@@H]2C)CC3)cc(C)c1F` [Compound 51, (R)-7-(cyclopropylmethyl)-2-((S)-5-(5-((S)-2,2-dimethyltetrahydro-2H-pyran-4-yl)-1-((1S,2S)-2-methyl-1-(5-oxo-4,5-dihydro-1,2,4-oxadiazol-3-yl)cyclopropyl)-1H-indole-2-carbonyl)-2-(4-fluoro-3,5-dimethylphenyl)-4-methyl-4,5,6,7-tetrahydro-2H-pyrazolo[4,3-c]pyridin-3-yl)-10-fluoro-2,3,3a,4-tetrahydro-1H,7H-imidazo[1',5':4,5][1,4]oxazino[3,2-f]indazol-1-one], at hGLP-1 receptor, the EC50 is 0.02 nM and the Emax is reported as 21.19 fold.
On to `Cc1cc(-n2nc3c(c2-n2ccn(-c4ccc5c(cnn5C)c4F)c2=O)[C@H](C)N(C(=O)c2cc4cc5c(cc4n2[C@@]2(c4noc(=O)[nH]4)C[C@@H]2C)OCC2COCCC52)CC3)cc(C)c1F` (stereo partly drawn) [Compound 4, 3-((1S,2S)-1-(9-((S)-3-(3-(4-fluoro-1-methyl-1H-indazol-5-yl)-2-oxo-2,3-dihydro-1H-imidazol-1-yl)-2-(4-fluoro-3,5-dimethylphenyl)-4-methyl-4,5,6,7-tetrahydro-2H-pyrazolo[4,3-c]pyridine-5-carbonyl)-1,4a,5,11b-tetrahydro-4H-pyrano[4',3':4,5]pyrano[3,2-f]indol-8(2H)-yl)-2-methylcyclopropyl)-1,2,4-oxadiazol-5(4H)-one], for which, at hGLP-1 receptor, the EC50 turned out to be 0.39 nM and the Emax is on record as 16.51 fold.
In the same order, the values of `Cc1cc(-n2nc3c(c2N2C[C@@H]4COc5cc6c(cnn6C(C)(C)C)c(F)c5N4C2=O)[C@H](C)N(C(=O)c2cc4cc([C@H]5CCOC(C)(C)C5)ccc4n2[C@@]2(c4noc(=O)[nH]4)C[C@@H]2C)CC3)cc(C)c1F` [Compound 50, (R)-7-(tert-butyl)-2-((S)-5-(5-((S)-2,2-dimethyltetrahydro-2H-pyran-4-yl)-1-((1S,2S)-2-methyl-1-(5-oxo-4,5-dihydro-1,2,4-oxadiazol-3-yl)cyclopropyl)-1H-indole-2-carbonyl)-2-(4-fluoro-3,5-dimethylphenyl)-4-methyl-4,5,6,7-tetrahydro-2H-pyrazolo[4,3-c]pyridin-3-yl)-10-fluoro-2,3,3a,4-tetrahydro-1H,7H-imidazo[1',5':4,5][1,4]oxazino[3,2-f]indazol-1-one] are 0.04 nM and 18.87 fold.
